This note sets out measurements from ChEMBL document CHEMBL2311506, “Novel benzoxazole inhibitors of mPGES-1” (Bioorg Med Chem Lett, 2013).

The nature of series [1]: Half life in dog at 0.25 mg/kg, iv. The note with it: in vivo. The class given is ADME, organism-based, Canis lupus familiaris. More on the design: dose 0.25 mg/kg, route intravenous.
Series [2] in a line: Oral bioavailability in dog at 0.5. The class given is ADME, organism-based, Canis lupus familiaris. The note with it: in vivo.
Series [3] can be described thus: Tmax in dog at 0.5 mg/kg, po. The class given is ADME, organism-based, Canis lupus familiaris. Set-up: dose 0.5 mg/kg, route oral. To be noted: in vivo.
A short description of series [4]: Half life in human liver microsomes. The series is classed as ADME, Microsome. Background: Liver microsomes are vesicles of endoplasmic reticulum, rich in cytochrome P450 enzymes.
Series [5] in a line: Plasma protein binding in rat. The series is classed as ADME, cell-free. To be noted: read-out: PPB (converted).
The nature of series [6]: Volume of distribution at steady state in dog at 0.25 mg/kg, iv. The series is classed as ADME, organism-based, Canis lupus familiaris. More on the design: dose 0.25 mg/kg, route intravenous. The note with it: in vivo, read-out: Vdss.
Series [7] can be described thus: Cmax in dog at 0.5 mg/kg, po. The class given is ADME, organism-based, Canis lupus familiaris. More on the design: dose 0.5 mg/kg, route oral. To be noted: in vivo.
Series [8] addresses Hematopoietic prostaglandin D synthase (Homo sapiens, UniProt O60760). The series is described as follows: Inhibition of human PGDS.
The nature of series [9]: Mean residence time in dog at 0.25 mg/kg, iv. The note with it: in vivo. The class given is ADME, organism-based, Canis lupus familiaris. Set-up: dose 0.25 mg/kg, route intravenous.
Series [10] in a line: Inhibition of recombinant rat mPGES-1 using PGH2 as substrate incubated 20 mins prior to substrate addition measured after 30 secs by EIA.
Series [11] in a line: Permeability of the compound by pampa. The class given is ADME. To be noted: read-out: permeability.
Series [12] can be described thus: Half life in human hepatocytes. The class given is ADME, cell-based, Hepatocyte.
The target in series [13] is T1, Prostaglandin G/H synthase 2 (Homo sapiens, UniProt P35354).
T1 sequence (P35354 whole entry): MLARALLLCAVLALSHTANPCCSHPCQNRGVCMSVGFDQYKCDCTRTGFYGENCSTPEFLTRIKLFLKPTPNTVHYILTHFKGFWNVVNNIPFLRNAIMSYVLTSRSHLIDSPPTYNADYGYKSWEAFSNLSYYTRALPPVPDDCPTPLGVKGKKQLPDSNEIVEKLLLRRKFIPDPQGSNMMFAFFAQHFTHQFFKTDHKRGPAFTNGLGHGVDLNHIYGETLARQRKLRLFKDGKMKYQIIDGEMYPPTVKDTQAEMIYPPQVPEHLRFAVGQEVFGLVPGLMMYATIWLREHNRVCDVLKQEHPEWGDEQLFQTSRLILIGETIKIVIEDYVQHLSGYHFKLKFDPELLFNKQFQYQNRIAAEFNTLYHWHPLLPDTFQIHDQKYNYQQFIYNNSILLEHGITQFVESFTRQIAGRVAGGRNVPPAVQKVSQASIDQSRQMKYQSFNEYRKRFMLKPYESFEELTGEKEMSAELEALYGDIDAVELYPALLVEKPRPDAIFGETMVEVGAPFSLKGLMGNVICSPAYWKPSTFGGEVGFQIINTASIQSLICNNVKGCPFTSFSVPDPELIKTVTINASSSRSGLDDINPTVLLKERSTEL
The series is described as follows: Inhibition of COX2 in human fetal fibroblast assessed as SnCl2-induced PGF2alpha production after 40 mins by ELISA. For orientation: In an ELISA, binding on a coated surface is turned into a signal by an enzyme label.

A short description of series [14]: Half life in rat liver microsomes. The series is classed as ADME, Microsome.
Series [15] can be described thus: Plasma protein binding in human. The series is classed as ADME, cell-free. The note with it: read-out: PPB (converted).
The next series has as its target T2, Prostaglandin E synthase (Homo sapiens, UniProt O14684).
T2 sequence (O14684 whole entry): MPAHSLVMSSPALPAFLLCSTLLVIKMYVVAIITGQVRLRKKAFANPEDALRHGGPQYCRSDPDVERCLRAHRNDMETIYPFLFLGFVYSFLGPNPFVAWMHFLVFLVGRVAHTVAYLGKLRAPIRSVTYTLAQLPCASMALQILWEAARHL
The series is described as follows: Inhibition of human recombinant mPGES-1 using PGH2 as substrate incubated 20 mins prior to substrate addition measured after 30 secs by EIA.

Series [16] in a line: Inhibition of rat mPGES-1 transfected in CHOK1 cells using [3H]PGH2 as substrate. The series is classed as cell-based. The note with it: cho-k1.

Hematopoietic prostaglandin D synthase, sequence (O60760 whole entry): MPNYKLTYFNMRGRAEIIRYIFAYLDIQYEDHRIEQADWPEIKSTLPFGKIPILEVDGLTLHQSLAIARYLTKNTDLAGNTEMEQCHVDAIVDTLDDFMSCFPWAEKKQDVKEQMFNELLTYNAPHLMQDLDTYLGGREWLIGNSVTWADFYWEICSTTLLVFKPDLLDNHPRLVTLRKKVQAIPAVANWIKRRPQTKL

The term half-life denotes how long it takes for the measured level to halve. A low value points to fast loss. As a reminder, the bioavailability is the share of a dose that reaches the circulation, judged against a reference dose that is usually intravenous. Read a high bioavailability as much systemic uptake. In general, Tmax refers to the time from dosing to the highest level. For orientation: Cmax means the maximum level reached in the sampled fluid or tissue. In general, IC50 refers to the concentration that inhibits the measured activity by half. The term MRT denotes a mean duration of stay, worked out from the concentration-time curve. As to `O=C(N[C@H]1CCC[C@@H]1OCc1ccccc1)C1CCN(c2nc3cc(Cl)ccc3o2)CC1`, the half-life in series [1] was 432 min; in [4], 10.8 min; in series [12], 80 min; in [14], 7.2 min. In addition, in series [2], the bioavailability came out at 55%. Besides, in [3], the Tmax was 30 min. Besides, the fraction unbound in series [5] is 0.02. The Vd in series [6] was 1 L/kg. The same compound returned a Cmax in series [7] of 1300 nM. For the same compound, the IC50 in [8] is greater than 10 µM; in series [10], greater than 10 µM; in series [13] it was greater than 100 µM. In series [9], this compound returned an MRT of 486 min. In addition, the Papp in [11] worked out at 1.3 ×10⁻⁶ cm/s.

`O=C(N[C@H]1CCC[C@@H]1COc1ccccc1)C1CCN(c2nc3cc(Cl)ccc3o2)CC1`: the fraction unbound in series [15] was less than 0.01. Also, on Prostaglandin E synthase, the IC50 is 0.034 µM.

Take `O=C(N[C@@H]1CCC[C@@H]1COc1ccccc1)C1CCN(c2nc3cc(Cl)ccc3o2)CC1`: on Prostaglandin E synthase, the IC50 was 0.0431 µM.

For `O=C(N[C@H]1CCC[C@@H]1CO)C1CCN(c2nc3cc(Cl)ccc3o2)CC1`, the IC50 on Prostaglandin E synthase was 3.2 µM.

Consider `O=C(N[C@@H]1CCC[C@@H]1CO)C1CCN(c2nc3cc(Cl)ccc3o2)CC1`, for which, on Prostaglandin E synthase, the IC50 worked out at 0.785 µM.

Regarding `O=C(N[C@@H]1CCC[C@H]1OCC1CCCC1)C1CCN(c2nc3cc(Cl)ccc3o2)CC1`, the IC50 on Prostaglandin E synthase is 0.176 µM.

As for `CO[C@@H]1CCC[C@H]1NC(=O)C1CCN(c2nc3cc(Cl)ccc3o2)CC1`, on Prostaglandin E synthase, the IC50 came to 8.15 µM.

`CCCCO[C@@H]1CCC[C@H]1NC(=O)C1CCN(c2nc3cc(Cl)ccc3o2)CC1`: the IC50 at Prostaglandin E synthase is 0.826 µM.

For `O=C(NC1CCCC1C(=O)O)C1CCN(c2nc3cc(Cl)ccc3o2)CC1` (stereo unspecified), the IC50 at Prostaglandin E synthase amounted to 7.18 µM.

`O=C(NC1CCCC1c1ccccc1)C1CCN(c2nc3cc(Cl)ccc3o2)CC1` (stereo unspecified): on Prostaglandin E synthase, the IC50 was determined as 0.291 µM.

Turning to `CC1CCCC1NC(=O)C1CCN(c2nc3cc(Cl)ccc3o2)CC1` (stereo unspecified), the IC50 at Prostaglandin E synthase amounted to 0.242 µM.

`O=C(NC1CCCCCC1)C1CCN(c2nc3cc(Cl)ccc3o2)CC1`: the IC50 at Prostaglandin E synthase was 0.821 µM.

In the case of `O=C(NC1CCC1)C1CCN(c2nc3cc(Cl)ccc3o2)CC1`, the IC50 at Prostaglandin E synthase is 3.01 µM.

On to `CN(C(=O)C1CCN(c2nc3cc(Cl)ccc3o2)CC1)C1CCCC1`, for which the IC50 at Prostaglandin E synthase was greater than 30 µM.

`O=C(NC1CCCC1)N1CCCN(c2nc3cc(Cl)ccc3o2)CC1`: at Prostaglandin E synthase, the IC50 was found to be 12.9 µM.

In the case of `O=C(NC1CCCC1)N1CCN(c2nc3cc(Cl)ccc3o2)CC1`, the IC50 on Prostaglandin E synthase is greater than 10 µM.

For the compound `O=S(=O)(NC1CCCC1)C1CCN(c2nc3cc(Cl)ccc3o2)CC1`, the IC50 on Prostaglandin E synthase was greater than 10 µM.

Consider `O=C(CCCNc1nc2cc(Cl)ccc2o1)NC1CCCC1`, for which the IC50 at Prostaglandin E synthase was greater than 10 µM.

`CSCCNC(=O)C1CCN(c2nc3cc(Cl)ccc3o2)CC1`: the IC50 on Prostaglandin E synthase stood at 1.2 µM.

For the compound `O=C(NC1CCCC1)C1CCN(c2nc3cc(Cl)ccc3o2)CC1`, the fraction unbound in series [15] was 0.005. In addition, the IC50 in series [13] is greater than 100 µM.

As for `CC(C)c1ccc2c(c1)c(SC(C)(C)C)c(CC(C)(C)C(=O)O)n2Cc1ccc(Cl)cc1`, in series [16], the IC50 was found to be 8.2 µM.
